## O=[N+]([O-])c1ccc(O)c2ncccc12
In acetic acid, 278.15 K
  solubility (mole fraction): 0.00224
In acetic acid, 280.65 K
  solubility (mole fraction): 0.00239
In acetic acid, 283.15 K
  solubility (mole fraction): 0.00259
In acetic acid, 285.65 K
  solubility (mole fraction): 0.0028
In acetic acid, 288.15 K
  solubility (mole fraction): 0.00303
In acetic acid, 290.65 K
  solubility (mole fraction): 0.00328
In acetic acid, 293.15 K
  solubility (mole fraction): 0.00355
In acetic acid, 295.65 K
  solubility (mole fraction): 0.00383
In acetic acid, 298.15 K
  solubility (mole fraction): 0.00416
In acetic acid, 300.65 K
  solubility (mole fraction): 0.00449
In acetic acid, 303.15 K
  solubility (mole fraction): 0.00484
In acetic acid, 305.65 K
  solubility (mole fraction): 0.0052
In acetic acid, 308.15 K
  solubility (mole fraction): 0.00559
In acetic acid, 310.65 K
  solubility (mole fraction): 0.00601
In acetic acid, 313.15 K
  solubility (mole fraction): 0.00649
In acetone, 278.15 K
  solubility (mole fraction): 0.00398
In acetone, 280.65 K
  solubility (mole fraction): 0.00429
In acetone, 283.15 K
  solubility (mole fraction): 0.00461
In acetone, 285.65 K
  solubility (mole fraction): 0.00498
In acetone, 288.15 K
  solubility (mole fraction): 0.00538
In acetone, 290.65 K
  solubility (mole fraction): 0.0058
In acetone, 293.15 K
  solubility (mole fraction): 0.00624
In acetone, 295.65 K
  solubility (mole fraction): 0.00668
In acetone, 298.15 K
  solubility (mole fraction): 0.00721
In acetone, 300.65 K
  solubility (mole fraction): 0.00773
In acetone, 303.15 K
  solubility (mole fraction): 0.00831
In acetone, 305.65 K
  solubility (mole fraction): 0.00888
In acetone, 308.15 K
  solubility (mole fraction): 0.00956
In acetone, 310.65 K
  solubility (mole fraction): 0.0103
In acetone, 313.15 K
  solubility (mole fraction): 0.0111
In acetonitrile, 278.15 K
  solubility (mole fraction): 0.00113
In acetonitrile, 280.65 K
  solubility (mole fraction): 0.00124
In acetonitrile, 283.15 K
  solubility (mole fraction): 0.00137
In acetonitrile, 285.65 K
  solubility (mole fraction): 0.00151
In acetonitrile, 288.15 K
  solubility (mole fraction): 0.00165
In acetonitrile, 290.65 K
  solubility (mole fraction): 0.0018
In acetonitrile, 293.15 K
  solubility (mole fraction): 0.00197
In acetonitrile, 295.65 K
  solubility (mole fraction): 0.00214
In acetonitrile, 298.15 K
  solubility (mole fraction): 0.00233
In acetonitrile, 300.65 K
  solubility (mole fraction): 0.00256
In acetonitrile, 303.15 K
  solubility (mole fraction): 0.00279
In acetonitrile, 305.65 K
  solubility (mole fraction): 0.00304
In acetonitrile, 308.15 K
  solubility (mole fraction): 0.00334
In acetonitrile, 310.65 K
  solubility (mole fraction): 0.00366
In acetonitrile, 313.15 K
  solubility (mole fraction): 0.00403
In ethanol, 278.15 K
  solubility (mole fraction): 0.000575
In ethanol, 280.65 K
  solubility (mole fraction): 0.000625
In ethanol, 283.15 K
  solubility (mole fraction): 0.000682
In ethanol, 285.65 K
  solubility (mole fraction): 0.00075
In ethanol, 288.15 K
  solubility (mole fraction): 0.00082
In ethanol, 290.65 K
  solubility (mole fraction): 0.000901
In ethanol, 293.15 K
  solubility (mole fraction): 0.000988
In ethanol, 295.65 K
  solubility (mole fraction): 0.00108
In ethanol, 298.15 K
  solubility (mole fraction): 0.00118
In ethanol, 300.65 K
  solubility (mole fraction): 0.00128
In ethanol, 303.15 K
  solubility (mole fraction): 0.00139
In ethanol, 305.65 K
  solubility (mole fraction): 0.00152
In ethanol, 308.15 K
  solubility (mole fraction): 0.00166
In ethanol, 310.65 K
  solubility (mole fraction): 0.00182
In ethanol, 313.15 K
  solubility (mole fraction): 0.00199
In ethyl acetate, 278.15 K
  solubility (mole fraction): 0.00339
In ethyl acetate, 280.65 K
  solubility (mole fraction): 0.00369
In ethyl acetate, 283.15 K
  solubility (mole fraction): 0.004
In ethyl acetate, 285.65 K
  solubility (mole fraction): 0.00437
In ethyl acetate, 288.15 K
  solubility (mole fraction): 0.00476
In ethyl acetate, 290.65 K
  solubility (mole fraction): 0.00517
In ethyl acetate, 293.15 K
  solubility (mole fraction): 0.00564
In ethyl acetate, 295.65 K
  solubility (mole fraction): 0.0061
In ethyl acetate, 298.15 K
  solubility (mole fraction): 0.00667
In ethyl acetate, 300.65 K
  solubility (mole fraction): 0.00724
In ethyl acetate, 303.15 K
  solubility (mole fraction): 0.00786
In ethyl acetate, 305.65 K
  solubility (mole fraction): 0.00857
In ethyl acetate, 308.15 K
  solubility (mole fraction): 0.00929
In ethyl acetate, 310.65 K
  solubility (mole fraction): 0.01
In ethyl acetate, 313.15 K
  solubility (mole fraction): 0.0109
In isopropanol, 278.15 K
  solubility (mole fraction): 0.0005
In isopropanol, 280.65 K
  solubility (mole fraction): 0.000548
In isopropanol, 283.15 K
  solubility (mole fraction): 0.000605
In isopropanol, 285.65 K
  solubility (mole fraction): 0.000672
In isopropanol, 288.15 K
  solubility (mole fraction): 0.000741
In isopropanol, 290.65 K
  solubility (mole fraction): 0.000816
In isopropanol, 293.15 K
  solubility (mole fraction): 0.000897
In isopropanol, 295.65 K
  solubility (mole fraction): 0.000974
In isopropanol, 298.15 K
  solubility (mole fraction): 0.00107
In isopropanol, 300.65 K
  solubility (mole fraction): 0.00118
In isopropanol, 303.15 K
  solubility (mole fraction): 0.00129
In isopropanol, 305.65 K
  solubility (mole fraction): 0.00141
In isopropanol, 308.15 K
  solubility (mole fraction): 0.00154
In isopropanol, 310.65 K
  solubility (mole fraction): 0.00168
In isopropanol, 313.15 K
  solubility (mole fraction): 0.00183
In methanol, 278.15 K
  solubility (mole fraction): 0.000443
In methanol, 280.65 K
  solubility (mole fraction): 0.000486
In methanol, 283.15 K
  solubility (mole fraction): 0.000531
In methanol, 285.65 K
  solubility (mole fraction): 0.000586
In methanol, 288.15 K
  solubility (mole fraction): 0.000643
In methanol, 290.65 K
  solubility (mole fraction): 0.000701
In methanol, 293.15 K
  solubility (mole fraction): 0.000763
In methanol, 295.65 K
  solubility (mole fraction): 0.00083
In methanol, 298.15 K
  solubility (mole fraction): 0.000904
In methanol, 300.65 K
  solubility (mole fraction): 0.000981
In methanol, 303.15 K
  solubility (mole fraction): 0.00107
In methanol, 305.65 K
  solubility (mole fraction): 0.00116
In methanol, 308.15 K
  solubility (mole fraction): 0.00127
In methanol, 310.65 K
  solubility (mole fraction): 0.00138
In methanol, 313.15 K
  solubility (mole fraction): 0.00149
In n-butanol, 278.15 K
  solubility (mole fraction): 0.000606
In n-butanol, 280.65 K
  solubility (mole fraction): 0.000663
In n-butanol, 283.15 K
  solubility (mole fraction): 0.000726
In n-butanol, 285.65 K
  solubility (mole fraction): 0.000797
In n-butanol, 288.15 K
  solubility (mole fraction): 0.000867
In n-butanol, 290.65 K
  solubility (mole fraction): 0.000961
In n-butanol, 293.15 K
  solubility (mole fraction): 0.00105
In n-butanol, 295.65 K
  solubility (mole fraction): 0.00116
In n-butanol, 298.15 K
  solubility (mole fraction): 0.00128
In n-butanol, 300.65 K
  solubility (mole fraction): 0.00139
In n-butanol, 303.15 K
  solubility (mole fraction): 0.00153
In n-butanol, 305.65 K
  solubility (mole fraction): 0.00166
In n-butanol, 308.15 K
  solubility (mole fraction): 0.0018
In n-butanol, 310.65 K
  solubility (mole fraction): 0.00197
In n-butanol, 313.15 K
  solubility (mole fraction): 0.00217
In n-propanol, 278.15 K
  solubility (mole fraction): 0.000562
In n-propanol, 280.65 K
  solubility (mole fraction): 0.000608
In n-propanol, 283.15 K
  solubility (mole fraction): 0.000675
In n-propanol, 285.65 K
  solubility (mole fraction): 0.000748
In n-propanol, 288.15 K
  solubility (mole fraction): 0.000814
In n-propanol, 290.65 K
  solubility (mole fraction): 0.000899
In n-propanol, 293.15 K
  solubility (mole fraction): 0.00099
In n-propanol, 295.65 K
  solubility (mole fraction): 0.00109
In n-propanol, 298.15 K
  solubility (mole fraction): 0.00119
In n-propanol, 300.65 K
  solubility (mole fraction): 0.00131
In n-propanol, 303.15 K
  solubility (mole fraction): 0.00143
In n-propanol, 305.65 K
  solubility (mole fraction): 0.00157
In n-propanol, 308.15 K
  solubility (mole fraction): 0.0017
In n-propanol, 310.65 K
  solubility (mole fraction): 0.00186
In n-propanol, 313.15 K
  solubility (mole fraction): 0.00204
In toluene, 278.15 K
  solubility (mole fraction): 0.00229
In toluene, 280.65 K
  solubility (mole fraction): 0.00247
In toluene, 283.15 K
  solubility (mole fraction): 0.00269
In toluene, 285.65 K
  solubility (mole fraction): 0.00293
In toluene, 288.15 K
  solubility (mole fraction): 0.00317
In toluene, 290.65 K
  solubility (mole fraction): 0.00345
In toluene, 293.15 K
  solubility (mole fraction): 0.00377
In toluene, 295.65 K
  solubility (mole fraction): 0.00408
In toluene, 298.15 K
  solubility (mole fraction): 0.00444
In toluene, 300.65 K
  solubility (mole fraction): 0.00481
In toluene, 303.15 K
  solubility (mole fraction): 0.00518
In toluene, 305.65 K
  solubility (mole fraction): 0.00562
In toluene, 308.15 K
  solubility (mole fraction): 0.00609
In toluene, 310.65 K
  solubility (mole fraction): 0.0066
In toluene, 313.15 K
  solubility (mole fraction): 0.00715
